From patent US20250017895A1, “FLAVANOID CONTAINING COMPOSITIONS AND METHODS OF USE THEREOF FOR THE TREATMENT OF MITOCHONDRIAL DISORDERS” (priority 2021, published 2025)
Entries after “also recorded” stand apart in the source; their conditions may differ.

Legend:
[1] = tested on: gas-1(fc21) ndufs2−/− complex I disease mutant worms; assay: C. elegans gas-1(fc21) lifespan analysis; assay type: in vivo; settings: FUDR used
Text: FIG. 2C, the Table below FIGS. 2A and 2B indicates specific values and P values calculated in Graphpad Prism v5.0 for graph shown in FIG. 2B (survival data is shown in days).
(§1) Neuromuscular activity, and lifespan were quantified in the C. elegans gas-1(fc21) ndufs2^−/− mutants. A semi-automated screening method (Mathew et al, 2016) was used to test drug treatment effects on an integrated C. elegans health endpoint of fecundity, brood size, and behavior.
(−) Epicatechin and (+) Epicatechins act through mimicry of the endogenous mitochondrial steroid 11-β-hydroxypregnenolone (11-OHP), a potent inducer of mitochondrial biogenesis. C. elegans nematode strains studied included wild-type (N2 Bristol) and gas-1(fc21) mutants. […] FIGS. 2D, 2E and 2F are graphs show a side-by-side comparison of (+)-epicatechin, (−)-epicatechin and 11-0HP on gas-1(fc-21) worm survival.

[2] = tested on: gas-1(fc21) mitochondrial complex I disease worms; assay: Worm neuromuscular activity by body bend rate analysis; assay type: in vivo, C. elegans; settings: 100 nMol
Text: FIGS. 5A and 5B: Worm neuromuscular activity as assayed by body bend rate analysis was reduced in gas-1(fc21) mitochondrial complex I disease ndufs2^−/− worms relative to wild-type (N2 Bristol) worms.
as §1

[3] = tested on: nutrient sensing signaling network (NSSN) gene expression; assay: NSSN gene expression and RNAseq KEGG pathway profiling in gas-1(fc21) worms; assay type: in vivo, C. elegans; settings: 24 hours; for MAPK signaling pathway expression (RNAseq, KEGG): relative to DMSO-only buffer
Text: RQ, relative quantitation. […] Pathways marked with a star are also positively modulated in this same mitochondrial disease animal model by combination glucose+nicotinic acid+N-acetylcysteine triple therapy.
It is already evident that epicatechin therapy in some diseases can favorably alter the activities of central NSSN nodes, such as AMPK, that are known to regulate cell proliferation, autophagy, and mitochondrial proliferation. […] The pathways marked with a star can similarly be restored in gas-1(fc21) complex I deficient worms by combination therapy of glucose+nicotinic acid+N-acetylcysteine.

[4] = tested on: AB (wild-type) zebrafish; assay: AB wild-type zebrafish swimming activity with high-dose rotenone; assay type: in vivo, Danio rerio
Text: Each symbol indicates one fish. **, p<0.01. ***, p<0.001.
EP07, 11-hydroxyprogesterone. **, p<0.01. Each symbol conveys activity of one well with n=8 animals/well in a 96-well plate, as quantified in dark-cycle analysis in the Zebrabox (Viewpoint).
Swimming activity (Zebrabox) was quantified in first five-minute periods of three consecutive dark cycles across 3 biological replicate experiments. Activity score was normalized to percent of wild-type concurrent controls. […] AB (wild-type) zebrafish had reduced swimming activity with high dose (70 nM) rotenone exposure for 4 hours on 7 dpf.
The indicated agents were added at 5 and 6 dpf, twice a day. 70 nM rotenone was added on 7 dpf. 4 hours later the larvae were transferred into a 96 well plate (1fish per well, 8 wells per condition), 96-well plates were immediately placed into NOLDUS to evaluate swim activity in repeating light-dark exposure. Swim activity effects were averaged in first 5 minutes of each light-off (‘dark’) period across all light on/off cycles.

[5] = tested on: cell or animal models of primary RC dysfunction; assay: Overall observations across cell and animal models of primary RC dysfunction
[6] = tested on: ndufs2−/− zebrafish; assay: ndufs2−/− zebrafish dark-induced swimming activity with low-dose rotenone (Zebrabox); assay type: in vivo, Danio rerio
[7] = tested on: Pdss2kd/kd homozygous missense mutant mice; assay: Liver mitochondrial content (VDAC western blot, citrate synthase activity) in Pdss2kd/kd mice; assay type: in vivo; settings: 5 μg/mL or 10 μg/mL in drinking water; both sexes
[8] = tested on: Pdss2kd/kd mice; assay: Liver NAD+, NADH and NADH:NAD+ redox analysis in Pdss2kd/kd mice; assay type: in vivo; settings: 5 μg/mL to 10 μg/mL in drinking water; 2 months
Text: FIGS. 17A-17E: Biochemical analysis of mitochondrial amount (citrate synthase activity) and NADH:NAD+ redox balance in coenzyme Q deficient Pdss2^kd/kd mice. […] Biochemical studies are shown both by sex and all grouped together, where n=number of animals studied per group.
Untreated mice included 2M and 1F.

[9] = tested on: human fibroblasts from a patient with FBXL4 disease; assay: FBXL4 patient fibroblast mitochondrial content by FACS of Mitotracker Green; assay type: cell-based; settings: for increase in cellular mitochondrial content compared to baseline: overnight incubation, data not shown; for improvement of mitochondrial content: 24 hours, galactose media
Method: (§2) Human fibroblasts were studied from a subject harboring a 1067del (p.Gly356Alafs*15) nonsense mutation in the maternal FBXL4 allele and a c. 1790A>C (p.GLn597Pro) missense mutation in the paternal FBXL4 allele (Gal et al, 2013). Fibroblasts were cultured in DMEM (1 g/L glucose, 0.8 g/L L-Glutamine, 110 mg/L Sodium Pyruvate). Light, fluorescence, confocal microscopy and transmission electron microscopy (TEM, Lavorato et al. 2017) methods were used to analyze proband fibroblasts and mitochondrial morphology at baseline and following metabolic stress induced by incubating cells for 48 hours in glucose/uridine-free media. Mitotracker green was used for fluorescence microscopy, Tom20 Antibody (Santa Cruz) and DAPI was used for confocal microscopy.

[10] = tested on: FBXL4-human disease patient fibroblasts; assay: FBXL4 patient fibroblast cell death in galactose; assay type: cell-based; settings: 20 nM; 72 hours in galactose
Method: as §2

[11] = tested on: gas-1(fc21) ndufs2−/− mutant worms; assay: In vivo terminal pharyngeal bulb fluorescence (MitoSOX, MitoTracker Green, TMRE) in gas-1(fc21) worms; set-up: species or system C. elegans
Method: In each panel, n conveys the number of animals studied per conditions. Bars and error bars convey mean and standard error, respectively.
Mitochondrial oxidant burden (MitoSOX Red), membrane potential (tetramethylrhodamine ethyl ester, TMRE), and mitochondrial content (MitoTracker Green FM, MTG) were performed in C. elegans at 20° C. using in vivo terminal pharyngeal bulb relative fluorescence microscopic quantitation. […] Worms were then paralyzed in situ with 5 mg/ml levamisole. Photographs were taken in a darkened room at 160× magnification with a Cool Snap cf2 camera (Nikon, Melville, N.Y.). A CY3 fluorescence cube set (MZFLIII, Leica, Bannockburn, Ill.) was used for MitoSOX and TMRE. A GFP2 filter set (Leica) was used for MitoTracker Green FM. Respective exposure times were 2 s, 320 ms, and 300 ms for each of MitoSOX, TMRE, and MitoTracker Green FM. The resulting images were background subtracted, and the nematode terminal pharyngeal bulb was manually circled to obtain mean intensity of the region by using Fiji Is Just ImageJ. Fluorescence data for each strain were normalized to its same day control to account for day-to-day variation. A minimum of 3 independent experiments of approximately 50 animals per replicate were studied per strain per dye. The significance of the difference in the mean fluorescence intensity between strains under different experimental conditions was assessed by mixed-effect ANOVA, which analyzes potential batch effect due to samples being experimentally prepared, processed, and analyzed on different days by including a batch random effect in the model. A statistical significance threshold was set at P<0.05. All statistical analyses were performed in SAS 9.3.
FIGS. 4A-4E show in vivo quantification of relative mitochondrial oxidant burden, mitochondrial content, and mitochondrial membrane potential in gas-1(fc21) complex I disease worms.

[12] = tested on: Human podocytes (renal glomerular cells); assay: Human podocyte viability / cell death under rotenone complex I inhibition; settings: for cell death caused by rotenone (45% cell death): 12.5 nM rotenone
[13] = 10 nMol, 72 hours, redosing every 24 hours

SMILES: CC(=O)[C@H]1CC[C@H]2[C@@H]3CC=C4C[C@@H](O)CC[C@]4(C)[C@H]3[C@@H](O)C[C@]12C [11-β-hydroxypregnenolone]
- lifespan rescue compared to buffer-only treated gas-1(fc21) worms ([1]; 1 nMol): Significant lifespan rescue
- lifespan rescue compared to buffer-only treated gas-1(fc21) worms ([1]; 10 nMol): Significant lifespan rescue
- impaired neuromuscular function (body bend rate) toward wild-type [2]: protective; also recorded: significantly rescued
- MAPK signaling pathway expression (RNAseq, KEGG) [3]: uniquely and substantially modulated
- increase in swimming activity toward AB controls ([4]; 2 nM pre-treatment from 5 dpf, high-dose (70 nM) rotenone 4 hours at 7 dpf): ~25%
- swimming activity ([4]; 6 nM, high-dose (70 nM) rotenone): significantly improved

SMILES: Oc1cc(O)c2c(c1)O[C@@H](c1ccc(O)c(O)c1)[C@@H](O)C2 [(+) epicatechin]
- effectiveness of low (nanomolar range) versus higher (micromolar range) concentrations ([5]; C. elegans and human cell studies): more effective than higher
- adverse effects ([5]; cell or animal models of primary RC dysfunction): No adverse effects
- lifespan rescue compared to buffer-only treated gas-1(fc21) worms ([1]; 1 nMol): Significant lifespan rescue
- median survival ([1]; 1 nMol, buffer-only gas-1(fc21) 19 days): 23 days
- lifespan rescue compared to buffer-only treated gas-1(fc21) worms ([1]; 10 nMol): Significant lifespan rescue
- maximum survival ([1]; 10 nMol, buffer-only gas-1(fc21) 27 days): 31 days
- impaired neuromuscular function (body bend rate) toward wild-type [2]: rescues; also recorded: significantly rescued
- swimming activity ([6]; 100 nM, low-dose (12 nM) rotenone): significantly improved
- increase in swimming activity toward wild-type controls ([6]; 100 nMol pre-treatment from 5 dpf, 12 nMol rotenone at 7 dpf): ~25%
- Daf-16 (FOXO) expression, downregulated in gas-1(fc21) ([3]; 10 nM): substantially upregulated
- Par-4 (LKB1) expression, downregulated in gas-1(fc21) ([3]; 10 nM): increased
- SOD2 (mnSOD) expression, upregulated in gas-1(fc21) ([3]; 10 nM, relative to wild-type levels): normalized
- MAPK signaling pathway expression (RNAseq, KEGG) [3]: uniquely and substantially modulated
- citrate synthase activity in liver [7]: substantially increased
- NAD+ deficiency / NADH:NAD+ redox imbalance in liver [8]: did not correct
- increase in cellular mitochondrial content compared to baseline ([9]; 1 nM): 14%
- increase in cellular mitochondrial content compared to baseline ([9]; 10 nM): 21%
- mitochondrial content ([9]; 1 nMol to 20 nMol range): significantly increased
- improvement of mitochondrial content ([9]; 1 nMol): 70%
- improvement of mitochondrial content ([9]; 10 nMol): 70%
- increased cell death in galactose [10]: significantly rescued
- improvement of mitochondrial membrane potential towards wild type levels ([11]; 10 nM, 24 hours): 62%
- improvement in mitochondrial content (MitoTracker Green) ([11]; 10 nM, 24 hours, most improved concentration): 39%
- mitochondrial content ([11]; 1 nMol, 24 hours): significantly rescued
- mitochondrial oxidant burden ([11]; 1 nMol, 24 hours): significantly rescued
- mitochondrial content ([11]; 10 nMol, 24 hours): significantly rescued
- mitochondrial membrane potential ([11]; 10 nMol, 24 hours): significantly recued
- mitochondrial oxidant burden ([11]; 10 nMol, 24 hours): significantly rescued
- mitochondrial content [11, 13]: significant rescue; also recorded: significantly rescued
- mitochondrial oxidant burden [11, 13]: complete reversal; also recorded: significantly rescued
- mitochondrial content ([11]; 100 nMol, 24 hours): significantly rescued
- mitochondrial oxidant burden ([11]; 100 nMol, 24 hours): significantly rescued
- mitochondrial oxidant burden (MitoSox) ([11]; all concentrations of 3-log order dose range, 24 hours): complete normalization
- cell death caused by rotenone (45% cell death) ([12]; 1 nM): not
- cell death caused by rotenone (45% cell death) ([12]; 10 nM): improved
- podocyte viability upon RC inhibition ([12]; 10 nM, galactose media, 25 nM rotenone, 48 hours): significantly improved
- podocyte viability upon RC inhibition ([12]; 10 nM, glucose media, 35 nM rotenone, 48 hours): significantly improved
- cell death caused by rotenone (45% cell death) ([12]; 100 nM): improved
- improvement in cell viability ([12]; 10 to 100 nanomolar, rotenone treated human cells): approximately 50%
- effectiveness on podocyte viability compared with the other enantiomer ([12]; rotenone, 48 hours): more effective than (−) epicatechin

SMILES: Oc1cc(O)c2c(c1)O[C@H](c1ccc(O)c(O)c1)[C@H](O)C2 [(−) epicatechin]
- lifespan rescue compared to buffer-only treated gas-1(fc21) worms ([1]; 10 nMol): Significant lifespan rescue
- lifespan rescue compared to buffer-only treated gas-1(fc21) worms ([1]; 100 nMol): Significant lifespan rescue
- impaired neuromuscular function (body bend rate) toward wild-type [2]: significantly rescued
